These results are taken from patent US8673917B2, “2-heteroaryl-pyrrolo [3,4-C]pyrrole derivatives, and use thereof as SCD inhibitors” (Sanofi, priority 2008, dated 2014).

The target in this assay is T1, SCD1 (Rattus norvegicus, UniProt P07308).
T1 construct: from tissue; host or cells: liver microsomes of male Wistar rats fed a carbohydrate-rich, low-fat diet
T1 sequence (P07308 1-358): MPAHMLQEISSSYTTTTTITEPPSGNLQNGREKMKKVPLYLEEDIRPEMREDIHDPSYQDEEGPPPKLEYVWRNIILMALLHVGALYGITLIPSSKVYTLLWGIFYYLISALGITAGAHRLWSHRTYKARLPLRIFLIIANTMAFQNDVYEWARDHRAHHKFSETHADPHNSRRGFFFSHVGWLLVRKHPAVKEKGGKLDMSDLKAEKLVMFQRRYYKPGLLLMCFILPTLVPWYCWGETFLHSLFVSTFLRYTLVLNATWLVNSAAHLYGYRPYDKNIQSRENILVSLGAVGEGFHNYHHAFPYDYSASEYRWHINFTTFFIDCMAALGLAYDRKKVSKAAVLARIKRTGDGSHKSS
Description: Stearoyl-CoA desaturase (SCD1) activity assay with rat liver microsomes, TLC with 1-14C-labeled stearic acid. Type of assay: biochemical. The conditions noted are these: for IC50: SCD1 activity; for inhibition at 10 µM: inhibition of SCD1 activity at 10 μM/l. As for the experimental part: The efficacy of the inventive compounds of the formula I was tested with microsomal enzymes in the following assay system:
The livers of male Wistar rats which (to induce the expression of SCD1) had been fed with a carbohydrate-rich, low-fat diet were homogenized with a Potter tissue homogenizer and differential centrifugation in a buffer which contained 250 mM/l of sucrose and 5 mM/l of HEPES (pH 7.0). The resuspended microsome fraction was stored at −80° C. The stearoyl-CoA desaturase activity was determined in a thin-film chromatography assay with 1-^14C-labeled stearic acid. In short, the particular inventive compounds (in DMSO in a final concentration of 1% [v/v]) were incubated with 15 μg of the rat liver microsomes in 200 μl of assay buffer (6 mM/l of MgCl2, 250 mM/l of sucrose, 150 mM/l of KCl, 40 mM/l of NaF, 100 mM/l of Na2HPO4 (pH7.4), 1.3 mM/l of ATP, 1.5 mM/l of reduced glutathione, 60 uM/l of CoA, 0.33 mM/l of nicotinamide and 0.94 mM/l of NADH) at room temperature for 10 min. 0.5 μCi [1-^14C]-stearic acid (55 mCi/mmol) was added, and the mixture was incubated at 37° C. for 1 h. The radioactively labeled fatty acids were subsequently hydrolyzed at 65° C. with 2.5 M KOH/MeOH:H2O (4:1) for 4 h, protonated with 280 μl of formic acid and extracted with 500 μl of hexane. The TLC plates were immersed into 10% AgNO3 and heat-activated before use. 150 μl of the hexane phase were applied to the plates, and the TLC plates were developed in buffer (chloroform:methanol:acetic acid:water [90:8:1:0.8]) and dried. The plates were read off in a phosphoimager to quantify the SCD1 activity.
The person skilled in the art can modify this assay in various aspects to determine the inhibition of the stearoyl-CoA desaturase activity.
A general note: Liver microsomes are vesicles of endoplasmic reticulum, rich in cytochrome P450 enzymes.

Counter-ions that a name gives are not always drawn.

By IC50 is commonly meant the midpoint of a concentration-inhibition curve. High values mean weaker potency in that assay, low ones greater potency in that assay. Usually inhibition stands for how much of the control response was suppressed. Low readings indicate a weak effect, high ones a strong effect. Turning to `O=C(c1ccccc1C(F)(F)F)N1CC2=C(C1)CN(c1ccc(OCc3ccccc3)cn1)C2` [Example 1, [5-(5-Benzyloxypyridin-2-yl)-3,4,5,6-tetrahydro-1H-pyrrolo[3,4-c]pyrrol-2-yl](2-trifluoromethylphenyl)methanone], the IC50 came to 133 nM and the inhibition at 10 µM came to 80%.

The compound `O=C(c1ccccc1C(F)(F)F)N1CC2=C(C1)CN(c1ccc(OCc3nccs3)nn1)C2` [Example 2, {5-[6-(Thiazol-2-ylmethoxy)pyridazin-3-yl]-3,4,5,6-tetrahydro-1H-pyrrolo[3,4-c]pyrrol-2-yl}-(2-trifluoromethylphenyl)methanone] gave an IC50 of 795 nM and an inhibition at 10 µM of 86%.

`O=C(c1ccccc1C(F)(F)F)N1CC2=C(C1)CN(c1ccc(OCc3ccccc3)nn1)C2` [Example 3, [5-(6-Benzyloxpyridazin-3-yl)-3,4,5,6-tetrahydro-1H-pyrrolo[3,4-c]pyrrol-2-yl](2-trifluoromethylphenyl)methanone] came in with an IC50 of 7.18 nM and an inhibition at 10 µM of 100%.

`O=C(c1ccccc1C(F)(F)F)N1CC2=C(C1)CN(c1ccc(OCCc3ccccc3)nn1)C2` [Example 4, [5-(6-Phenethyloxypyridazin-3-yl)-3,4,5,6-tetrahydro-1H-pyrrolo[3,4-c]pyrrol-2-yl](2-trifluoromethylphenyl)methanone trifluoroacetate] yielded an IC50 of 43.4 nM.

For the compound `O=C(c1ccccc1C(F)(F)F)N1CC2=C(C1)CN(c1ccc(OCCC3CC3)nn1)C2` [Example 5, {5-[6-(2-Cyclopropylethoxy)pyridazin-3-yl]-3,4,5,6-tetrahydro-1H-pyrrolo[3,4-c]pyrrol-2-yl}-(2-trifluoromethylphenyl)methanone trifluoroacetate], the IC50 is 213 nM.

For `O=C(c1ccccc1C(F)(F)F)N1CC2=C(C1)CN(c1ccc(OCc3cscn3)nn1)C2` [Example 6, {5-[6-(Thiazol-4-ylmethoxy)pyridazin-3-yl]-3,4,5,6-tetrahydro-1H-pyrrolo[3,4-c]pyrrol-2-yl}-(2-trifluoromethylphenyl)methanone trifluoroacetate], the IC50 was found to be 483 nM.

For `O=C(c1ccccc1C(F)(F)F)N1CC2=C(C1)CN(c1ccc(OCC3CCOCC3)nn1)C2` [Example 7, {5-[6-(Tetrahydropyran-4-ylmethoxy)pyridazin-3-yl]-3,4,5,6-tetrahydro-1H-pyrrolo[3,4-c]pyrrol-2-yl}-(2-trifluoromethylphenyl)methanone trifluoroacetate], 7120 nM corresponded to half-maximal inhibition (IC50).

Regarding `O=C(c1ccccc1C(F)(F)F)N1CC2=C(C1)CN(c1ccc(OCc3ccccc3)nn1)C2` [Example 8, 5-(6-Benzyloxypyridazin-3-yl)-3,4,5,6-tetrahydro-1H-pyrrolo[3,4-c]pyrrol-2-yl](2-trifluoromethylphenyl)methanone hydrochloride], the IC50 is 8.48 nM. This IC50 lies about 840-fold lower than the previous one.

Consider `O=C(c1ccccc1C(F)(F)F)N1CC2=C(C1)CN(c1ccc(OCc3ccccn3)nn1)C2` [Example 9, 5-[6-(Pyridin-2-ylmethoxy)pyridazin-3-yl]-3,4,5,6-tetrahydro-1H-pyrrolo[3,4-c]pyrrol-2-yl}-(2-trifluoromethylphenyl)methanone hydrochloride], for which the IC50 worked out at 1340 nM.
